Patent US20240368552A1, “PRE-EPICARDIAL CELLS AND USES THEREOF” (The General Hospital Corporation, priority 2021, published 2024)

Columns and labels:
Format in all cases: cell-based, human
[1] = test system: IGF2; assay: Inhibition of RA signaling in PEC in transwell (IGF2 qPCR); conditions: 5 μM, 6 days, vs control without BMS
Method: (§1) Quantitative PCR. Cells were lysed with RT buffer and total RNA was purified using RNeasy® Plus Mini kit (Qiagen, Hilden, Germany) which was reverse transcribed to cDNA using Superscript IV VILO Master Mix (Gibco, Grand Island, NY) and ran on Bio-rad T100™ Thermal Cycler according to manufacturer's protocol. Quantitative PCR was performed on StepOnePlus Real-time PCR system (Applied Biosystems, Foster City, CA) after mixing cDNA with Taqman Gene Expression Master Mix (Cat #: 4369016) and gene Taqman probe (Applied Biosystems, Foster City, CA) which can be found in Table 1. All gene expressions were normalized to housekeeping gene beta-actin and presented as log 2fold change (delta-delta CT).
Inhibition of RA signaling in PEC in Transwell: PECs were seeded at 2.5×10^5 cells/well in 24 well-plate while 2.5×10^5 cells VM were cultured in the transwell insert. Both cells were cultured using PECM:RPMI-INS medium, with […] (5 μM) only present in lower compartment with PECs, for 6 days. IGF2 RNA was harvested from PECs for qPCR analysis.

[2] = test system: hiPSC-derived CMs; assay: Differentiation of ventricular-like CM population with BMS-189453; conditions: day 30, treated 96 h starting at day 3, vs control
Method: as §1
Differentiation of Ventricular-like CM population. Human iPS cells were maintained and differentiated to LPM with Stemolecule™ CHIR99021 for 48 h. BMS-189453 (1-2 μM, Sigma Aldrich, St. Louis, MO) was supplemented together with Stemolecule™ Wnt inhibitor IWP-4 (Stemgent, San Diego, CA) in RPMI-INS for 48 h starting day 3. Then, BMS-189453 treatment was continued after additional 48 h after withdrawal of Stemolecule™ Wnt inhibitor IWP-4 in RPMI-INS until day 9. Culture medium was then switched to RPMI supplemented with insulin containing B27 to further maintain the differentiated ventricular myocytes until use.

[3] = test system: PECs; assay: Stimulation of epithelial-mesenchymal transition in PECs; conditions: for PECs CD90 positive: 6 days treatment, flow cytometry; for PEC phenotype (ZO1, WT1, morphology): immunofluorescence, extended culture / 6 days
Method: Stimulation of epithelial-mesenchymal transition in PECs. Day 7 PECs were seeded at 100,000 cells/well on 24-well-plate pre-coated with 0.1% gelatin, and allowed to attach overnight in basal medium (BM) consisted of DMEM/F12 supplemented with […] of Albumax (Gibco, Grand Island, NY), 1×ITS (Gibco, Grand Island, NY), 60 μg/ml ascorbic acid (Sigma Aldrich, St. Louis, MO). 1 μM of ROCK inhibitor Y27632 (Tocris Bioscience, Bristol, UK) was added to facilitate PEC attachment for 24 h. Then, PECs were expanded to full confluency in the BM with 2 μM SB431542 (Stemgent, San Diego, CA) but without AlbuMAX II (Gibco, Grand Island, NY), for 3-4 days. EMT were initiated by adding 5 ng/ml TGFβ (R&D system, Minneapolis, MN) for the initial 3 days and 10 ng/ml bFGF (PeproTech, Rocky Hill, NJ) for the subsequent 3 days or just bFGF alone, up to 6 days. Controls were epicardial cells in basal medium or with addition of 2 μM SB431542 (Stemgent, San Diego, CA).
as §1
Flow cytometry. Cells were dissociated using trypsin, pelleted by centrifugation at 300 g for 5 min, and fixed with Fixation/Permeabilization Solution Kit according to manufacturer's protocol (BD Biosciences, San Diego, CA). Cells were washed with 2 times of 10% BD Perm/Wash Buffer (BD Biosciences, San Diego, CA) to remove fixative prior to staining. Samples were incubated with primary antibody diluted in BD Perm/Wash Buffer at 4° C. for 45 min. To remove excessive primary antibody, samples were spun at 250 g for 5 min and washed once with Perm/Wash buffer prior to labelling with Alexa Fluor 488 secondary antibody (Molecular Probes Eugene, OR) at 1:500 for 30 min. All samples were washed once with BD Perm/Wash Buffer prior to analysis with BD Accuri, BD FACS LSR Flow Cytometer (BD Biosciences, San Diego, CA) or NovoCyte Flow Cytometer (ACEA Biosciences, San Diego, CA). All flow cytometric analyses were performed using FlowJo 10.5.0 software.
Immunofluorescence labelling and microscopy (cells, spheres, aggregates). Cultured cells were fixed with cold methanol at 4° C. for 15 min, and then washed with PBS. CM-spheres, PEC-Spheres, and cardiac aggregates were fixed overnight with 4% paraformaldehyde, embedded in Histogel™ (Thermo Scientific, Kalamazoo, MI), dehydrated, and embedded in paraffin. Sections were cut at 5 μm, deparaffinized, and treated with a heat-mediated antigen retrieval technique that included a 20-min boilin 0.01 M citrate buffer (pH 7.0). Both cells and histological sections were labelled with primary antibodies (Table 1) overnight at 4° C. Donkey anti rabbit AlexaFluor 488 and donkey anti-mouse AlexaFluor 546 and 647 (Molecular Probes Eugene, OR) were used as secondary antibodies at 1:500 and nuclei were counterstained with DAPI (Sigma Aldrich, St. Louis, MO). All labelled cells were visualized using Nikon Eclipse Ti fluorescence microscope (Nikon Instruments, Melville, NY), and processed with NIS element imaging software or ImageJ.

[4] = test system: ventricular-CMs; assay: IGF signaling in PEC-induced ventricular-CM proliferation (IGF1R inhibition assay, IGF2 dose-response)
[5] = test system: hiPSCs (BJR-iPS cells); assay: Lateral plate mesoderm (LPM) induction from hiPSCs with CHIR, flow cytometry and RT-PCR
Method: HiPSC culture, maintenance and differentiation. Human BJR-iPS cells (hiPSCs) were obtained from Harvard Stem Cell Institute, and maintained in MTeSR medium (STEMCELL Technologies). hiPSCs were passaged with ReleaSR (STEMCELL Technologies, Cambridge, MA) and plated at 1:20 ratio every 7 days onto […] pre-coated with growth factor reduced (GFR)-Matrigel (Corning, Tewksbury, MA). Briefly, hiPSCs were seeded at 200,000 cells/cm^2 onto a GFR-Matrigel-coated plate and maintained in MTeSR medium for 4-5 days. To generate the lateral plate mesoderm (LPM), the cells were treated with 12 μM Stemolecule™ CHIR99021 (Stemgent, San Diego, CA) in differentiation basal medium consisting of RPMI medium supplemented with B27 without insulin (Gibco, Grand Island, NY) (RPMI-INS,) for 48 h. Then, the medium was replaced with RPMI-INS for 24 h. Next, the culture was incubated with 5 μM of Stemolecule™ Wnt inhibitor IWP-4 (Stemgent, San Diego, CA) in RPMI-INS for 48 hr before switching it back to RPMI-INS, for additional 48 hr. After that, the medium was changed to RPMI medium supplemented with insulin-containing B27, and refreshed every 2 days for long term maintenance. For PEC differentiation, LPM cells at day 3 were treated with RPMI-INS supplemented 50 ng/ml bone morphogenic protein (BMP) 4 (PeproTech, Rocky Hill, NJ), 5 ng/ml vascular endothelial growth factor (VEGF; PeproTech, Rocky Hill, NJ) and 4 μM retinoic acid (RA; Stemgent, San Diego, CA) in RPMI-INS and changed every 2 days for 96 hr. PECs were dissociated using collagenase I (Sigma Aldrich, St. Louis, MO) and 1×TrypLE Express Enzyme (Gibco, Grand Island, NY), and maintained in complete PEC medium (PECM) consisted of DMEM/F12 supplemented with 1×insulin-selenium-transferrin (ITS; Gibco, Grand Island, NY), 5 ng/ml VEGF (PeproTech, Rocky Hill, NJ), 10 μM retinol, 4 μM RA (Stemgent, San Diego, CA) and 60 μg/ml ascorbic acid (Sigma). For plating, 1 μM of ROCK inhibitor Y-27632 dihydrochloride (Tocris Bioscience, Bristol, UK) was added for 24 h to facilitate cell attachment, after which medium was switched to PECM. For PEC maintenance, differentiated PEC were passaged and seeded at 10,000/well of 24 well-plate and maintained using SB medium consisted of DMEM/F12 supplemented with 0.4 mg/ml of Albumax (Gibco, Grand Island, NY), 1×ITS (Gibco, Grand Island, NY), 60 μg/ml ascorbic acid (Sigma Aldrich, St. Louis, MO), with 2 μM TGFβ inhibitor SB431542 (Tocris Bioscience, Bristol, UK). […]
Quantitative PCR. […] Quantitative PCR was performed on StepOnePlus Real-time PCR system (Applied Biosystems, Foster City, CA) after mixing cDNA with Taqman Gene Expression Master Mix (Cat #: 4369016) and gene Taqman probe (Applied Biosystems, Foster City, CA) which can be found in Table 1. […]

[6] = 6 days, RT-PCR vs SB-treated PECs
[7] = 48 h CHIR treatment, day 3, RT-PCR vs hiPSC
[8] = day 3, 48 h CHIR treatment, flow cytometry

For `CC1(C)CC=C(c2ccccc2)c2cc(/C=C/c3ccc(C(=O)O)cc3)ccc21` [BMS, BMS189453], the “IGF2 expression in co-cultured PECs” value [1] was “significantly reduced” and the “ventricular genes MYH7 and MYL2 expression” value [2] was “significantly upregulated”.

In the case of TGFβ, the “PECs CD90 positive” value [3] is reported as 28.7±3.5%, the “ACTA2, DDR2 and POSTN expression” value [3, 6] is reported as “significant increases” and the “PEC phenotype (ZO1, WT1, morphology)” value [3] is reported as “ZO1 disarrangement, cell and nucleus enlargement, and WT1-expression loss”.

With `C[C@]1(O)C[C@@H](c2nc(-c3ccc4ccc(-c5ccccc5)nc4c3)c3c(N)nccn32)C1` [Linsitinib] the “cTnT+ EdU+ CMs” value ([4]; treated with 1 μM, 3 days, PEC coculture) was 7.0±0.4%.

For “bFGF: bFGF growth factor (PeproTech), 10 ng/ml”, the “PECs CD90 positive” value [3] was 95.3±0.7%, the “ACTA2, DDR2 and POSTN expression” value [3, 6] was “significant increases” and the SNAI1 expression [3, 6] was “upregulation”. The “fibroblast markers TCF21 and VIM expression” value [3, 6] was “significant upregulation” and the “PEC phenotype (ZO1, WT1, morphology)” value [3] was “ZO1 disarrangement, cell and nucleus enlargement, and WT1-expression loss”.

With `NC(=O)c1ccc(-c2nc(-c3ccc4c(c3)OCO4)c(-c3ccccn3)[nH]2)cc1` [SB, SB431542] the “PECs CD90 positive” value [3] was 1.1±0.1% and the “PEC phenotype (ZO1, WT1, morphology)” value [3] was “maintain the cuboidal epithelial phenotype with defined ZO1 expression”.

In the case of “IGF2: IGF2 protein added to ventricular CMs”, the “cTnT+ EdU+ CMs” value ([4]; IGF2 addition, dose-response) is reported as “significantly increased”.

With `Cc1c[nH]c(-c2cnc(NCCNc3ccc(C#N)cn3)nc2-c2ccc(Cl)cc2Cl)n1` [CHIR, CHIR99021] the “pluripotency markers (OCT3/4, SOX2, NANOG) expression” value [5, 7] was “significant downregulation”, the “primitive streak, lateral plate mesoderm and cardiac progenitor marker expression” value [5, 7] was “significant upregulation” and the “LPM progenitors expressing KDR” value [5, 8] was 88.0±3.6%. The “LPM progenitors expressing PDGFRA” value [5, 8] was 73.7±4.3%.
